According to patent US12383628B2 (priority 2016, dated 2025):
Square brackets hold non-standard residues; d marks the D form. Peptide text beside a SMILES is read from it. Dmt = Cc1cc(O)cc(C)c1C[C@H](N)C(=O)O

Columns and labels:
Male CD1 mice = test: Radiant heat tail-flick test of biogel compositions s.c. (in solution or as a gel); format: in vivo, mouse; conditions: injection volume of 150 μl
Protocol: Male CD1 mice (6-8 weeks old, body weight average 30 g) were obtained from Charles River (Sulzfeld, Germany). Mice were group-housed in a temperature controlled room with a 12 h light/dark cycle and with free access to food and water. All animal studies were conducted in accordance with ethical guidelines and animal welfare standards according to Austrian regulations for animal research, and were approved by the Committee of Animal Care of the Austrian Federal Ministry of Science and Research. […]
The radiant heat tail-flick test was used to assess antinociceptive effects of tested drugs after s.c. administration in mice using an UB 37360 Ugo Basile analgesiometer (Ugo Basile s.r.l., Varese, Italy) as described previously (A. Novoa et al., 2012). The reaction time required by the mouse to remove its tail due to the radiant heat was measured and defined as the tail-flick latency. […] The antinociceptive response was expressed as percent of Maximum Possible Effect (% MPE)=[(TL-BL)/(cut-off time-BL)]×100. Data were analyzed with ANOVA using Tukey's multiple comparison test, and graphically processed with the GraphPad Prism Software (GraphPad Software Inc., San Diego, CA). […]

[1] = Stability and degradability of biogels in human plasma (Example 8); format: in vitro ADME; conditions: human plasma, 37° C.
Protocol: After centrifugation at 14 000 rpm for 15 minutes, 100 μL supernatant was diluted with 100 μL milliQ water in the injection vial. Injection samples were vortexed for 5 seconds and were analyzed by HPLC. […] Calculations were performed using Microsoft® Office Professional 2010 Excel.

[2] = Peptide gelation (tilted tube / inverted vial test, minimum gelation concentration); format: physicochemical; conditions: for Minimum gelation concentration: PBS 10 mM; for Minimum gelation concentration (w/v % in PBS): '/' = no gel
Outline: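 TFA salt of peptide dissolved (1 or 2 mg per 100 μL) in PBS pH 7.4 or 0.9% NaCl saline, vortexed and sonicated, then left overnight at room temperature. Gelation judged by inverted vial test: no gravitational flow means gel. Rheology by dynamic rheometry at 37° C (G′, G″, tan δ).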

[3] = Dynamic rheometry of hydrogels (storage modulus G′); format: physicochemical; conditions: 2% w/v in PBS, 37° C., value at 1 Hz
Protocol: Dynamic rheometry measurements were performed on an AR-G2 rheometer (TA Instruments) equipped with electrically heated plates and a 10 mm-diameter aluminium parallel plate-plate geometry. Viscoelastic properties were measured by oscillatory frequency sweeps at 37° C. in the range between 0.01 and 10 Hz, using a controlled strain of 0.05%. Hydrogel samples were made 12 h in advance. A ring-shaped reservoir filled with a saturated NH4Cl solution was used as a solvent trap.
To evaluate the mechanical properties of these hydrogels in a more quantitative manner, rheological experiments were performed. The viscoelastic properties of the peptide hydrogels were measured by dynamic rheometry at 37° C. This technique allowed to measure the storage modulus G′ (corresponding to the material's stiffness or rigidity), loss modulus G″ (corresponding to the viscous properties of the material) and loss factor tan (o) (ratio of G″ over G′).

[4] = TEM / cryo-TEM fibre morphology of hydrogels; format: physicochemical
Protocol: Formvar carbon-coated 400-mesh copper grids (Agar Scientific, Stansted, United Kingdom) were treated with plasma using an ELMO Glow discharge system to clean the grid surface and to render the carbon surface hydrophilic. Hydrogel samples were prepared 12 h in advance as described above. Small aliquots of sample (5 μL) were pipetted onto the carbon grids for adsorption. After 30 s, excess of sample was removed by using a Whatman 541 filter paper. The loaded grids were stained during 10 s with 1% uranyl formate after which the grids were air-dried. Samples were analysed using a JEOL JEM-1400 transmission electron microscope, operating at accelerating voltage of 120 kV. Images were recorded on a CMOS TemCam-F416 camera and accessory software of TVIPS.
200-mesh copper grids coated with perforated carbon film (Lacey carbon film: ProSci-Tech Old, Australia) were used and were glow discharged in nitrogen for 5 s immediately prior to use. Hydrogel samples were prepared 12 h in advance as described above. Small aliquots of sample (4 μL) were pipetted onto the carbon grids for adsorption. After 30 s, excess of sample was removed by using a Whatman 541 filter paper. The grid was then plunged into liquid ethane cooled by liquid nitrogen. Frozen grids were stored in liquid nitrogen until required. Samples were analysed using a Gatan 626 cryoholder and Tecnai 12 Transmission electron microscope, operating at accelerating voltage of 120 kV. Images were recorded using an FEI Eagle 4k×4k CCD camera.

[5] = tested on: L929 (mouse fibroblast) cells; test: Live/Dead cell viability assay on hydrogels (Example 5); format: cell-based; conditions: 24 h on hydrogel
Protocol: L929 (mouse fibroblast) cells were obtained from ATCC® and maintained in Gibco®, MEM with GlutaMAX supplemented with 10% FBS (SAFC, Sigma), 1% Anti-Anti (100×, Gibco®) and 1% NEAA (100×, Gibco®). Cells were maintained on tissue culture treated polystyrene (TCPS) plates at 37° C. in a humified atmosphere containing 5% CO2 and 95% air. Cells were trypsinized, harvested and counted using a hemocytometer. The resulting cell suspension was diluted in Gibco® solution before addition to the hydrogels. For ease of handling and to produce homogeneous clear hydrogels, 100 μL of peptide hydrogels were prepared (in corresponding gelation conditions, see above) in Eppendorf tubes (0.5 ml) and transported using a 21G syringe to 96-well plates after simultaneously heating (60° C.) and mixing (900 rpm) using an Eppendorf ThermoMixer®. The hydrogels were left to set overnight in the wells at room temperature and were subsequently washed twice with 200 μL of Anti-Anti (100×, Gibco®) solution, 2 h each. After washing, media was removed and cells were seeded evenly over hydrogels. Cells were plated in duplicate on all hydrogels and control wells. Viability of cells on hydrogels was determined using the traditional Live/dead cell viability assay (Invitrogen) after culture durations of 24 h.
Plates were incubated in 5% CO2 at 37° C. for 1 day to allow cell attachment and spreading to occur. […]

[6] = after 4 days of incubation
Protocol: Human plasma was obtained from the Belgian Red Cross (Vlaams-Brabant, Leuven). […] Frozen (−20° C.) human plasma samples were thawed and thermostated to 37+2° C. Dissolution of the lyophilized peptide and consecutive dilutions were performed in water. […] On every time point 100 μL spiked plasma was transferred to a 500 μL Eppendorf tube and a protein crash was performed using 300 μL methanol+0.1% TFA (4° C.). Suspensions were vortexed for 15 seconds and placed at 4° C. for 30 to 45 minutes. After centrifugation at 14000 rpm for 20 minutes, 100 μL supernatant was diluted with 100 μL water in the injection vial. Injection samples were vortexed for 5 seconds and placed in the autosampler. […] Concentrations were calculated by use of the calibration curve and transferred to a semi-log chart presenting the log concentrations as a function of time. The optimum curve was used to calculate the peptide-half life. Calculations were performed using Microsoft® Office Professional 2010 Excel.

[7] = 37° C., 9 μM
Protocol: Human plasma was obtained from the Belgian Red Cross (Vlaams-Brabant, Leuven). Prior to the stability test, selectivity, stability of the compound in the injection solvent, linearity, accuracy and precision of the method were investigated. Frozen (−20° C.) human plasma samples were thawed and thermostated to 37±2° C. Dissolution of the lyophilized peptide and consecutive dilutions were performed in water. The resulting aqueous solutions of each peptide individually was spiked in human plasma (10:90 v/v) with final plasma concentrations of 9 μM.
On every time point 100 μL spiked plasma was transferred to a 500 μL Eppendorf tube and a protein crash was performed using the corresponding precipitation solvent (4° C.). Suspensions were vortexed for 15 s and placed at 4° C. for 30 to 45 min. After centrifugation at 18 625 g for 20 min, 100 μL supernatant was diluted with 100 μL water in the injection vial.
Injection samples were vortexed for 5 sand placed in the autosampler. […] Concentrations were calculated by use of the calibration curve and transferred to a semi-log chart presenting the log concentrations as a function of time. The optimum curve was used to calculate the peptide half-life. Calculations were performed using Microsoft® Office Professional 2010 Excel.

[8] = In vivo monitoring of cargo release with SPECT/CT; set-up: species or system C57Bl/6J mice
Protocol: The ^111In-labeled molecules were diluted up to 1 ml with PBS and either used as such, or incorporated within the hydrogel as described below.
Images were reconstructed using a filtered back-projection algorithm.
Images were quantified using the software AMIDE (sourceforge.net).

Compound: Cc1cc(O)cc(C)c1C[C@H](N)C(=O)N[C@H](CCCNC(=N)N)C(=O)N[C@@H](Cc1ccccc1)C(=O)N[C@@H](Cc1ccccc1)C(=O)N[C@@H](CCC(N)=O)C(=O)N[C@@H](Cc1ccccc1)C(=O)N[C@@H](CCC(N)=O)C(=O)N[C@@H](Cc1ccccc1)C(=O)N[C@@H](CCCCN)C(N)=O [CM-57, Dmt-DArg-Phe-Phe-Gln-Phe*-Gln-Phe-Lys-NH2] (H-[Dmt][dR]FFQFQFK-NH2; N-terminus assumed)
- Release profile as biogel in tail-flick test (Male CD1 mice): showed the desired sustained release curve
- Time at which degradation of the heptapeptide into the N-terminal pentapeptide started [1]: 7.5 min
- Time at which degradation of the pentapeptide into tripeptide was observed [1]: 60 min
- Time of appearance of the heptapeptide (loss of Phe-Lys-NH2) [1]: 2.5 min
- half-life at 14 μM ([1]; human, in solution, 14 μM): ~17 min

Compound: NCCCC[C@@H](NC(=O)[C@@H](Cc1ccccc1)NC(=O)[C@@H](CCC(N)=O)NC(=O)[C@@H](Cc1ccccc1)NC(=O)[C@@H](CCC(=O)O)NC(=O)[C@H](N)Cc1ccccc1)C(N)=O [peptide 4, H-DPhe-DGlu-DPhe*-DGln-DPhe-DLys-NH2] (H-[dF][dE][dF][dQ][dF][dK]-NH2)
- Minimum gelation concentration ([2]; pH 7.4): 24 mM
- Minimum gelation concentration ([2]; pH 7.4 (text, Examples 1-2)): 2 % w/v
- Minimum gelation concentration (w/v % in PBS) [2]: 3 w/v %
- Storage modulus G′ [3]: ca. 1000 Pa
- Fibre thickness ([4]; TEM, Example 2): ca. 10 nm
- Cytotoxicity (Live/Dead cell viability, qualitative) [5]: evenly distributed number of red (dead cells) and green (live cells) fluorescent cells
- Stability after incubation with human plasma [6]: remained intact

Compound: NCCCC[C@@H](N)C(=O)N[C@H](Cc1ccccc1)C(=O)N[C@H](CCC(N)=O)C(=O)N[C@H](Cc1ccccc1)C(=O)N[C@H](CCC(=O)O)C(=O)N[C@H](Cc1ccccc1)C(N)=O [peptide 24, H-DLys-DPhe-DGln-DPhe*-DGlu-DPhe-NH2] (H-[dK][dF][dQ][dF][dE][dF]-NH2)
- Minimum gelation concentration (w/v % in PBS) [2]: 2 w/v %
- Fibre diameter ([4]; cryoTEM and negative staining, Example 9): ~5 nm
- Stability in human plasma [7]: remains intact after 25 h of incubation

Compound: DOTA-4-amino-2-cyclohexylmethyl-indolo[3,4-c]azepin-2-on [small molecule 3]
- Clearance from the injection site ([8]; 111In-labeled cargo s.c. in solution, 1 mg/ml): totally cleared within three hours
- Release profile ([8]; co-formulated within hydrogel of peptide 2, s.c.): released in a rather fast manner
